For 86 compounds, melting point results are on record in a melting point compilation (Tetko et al.; mined from patent text by program, amines drawn as free bases though some values may be those of a salt).

What is called melting point is the temperature, or range, at which the solid turns liquid. Compound `O=C1Nc2ccc(C(F)(F)F)cc2C1c1ncnc2nn(C3CCCCC3)cc12` (stereo unspecified) had a melting point above 300 °C.

The compound `COC(=O)c1c(Cl)cc(Cl)cc1NC(=O)CSc1ccc(NC(=O)c2ccco2)cc1` registered a melting point of 133 to 135 °C. The result for `CCCCc1ccc(N)nc1` reads 30 to 33 °C; that for `Cc1cc(C(=O)NN)ccc1-c1ccc(C(=O)C2CN(C)CCC23COc2cc4c(cc23)NCC4)cc1` (stereo unspecified), 130 to 135 °C; that for `CSc1cc(C)c(O)c(C)c1SC`, 98 to 100 °C. Take `CCCCCCCCCCCCCCCCCCOc1cc(OCCOCCOCCOCC)cc(N(CC(=O)O)CC(=O)O)c1`: the melting point lay within 76 to 78 °C. Then `O=C(Nc1cccc(CN2C(=O)[C@H]3CCC[C@H]3N(C(=O)CN3C(=O)c4ccccc4C3=O)c3ccccc32)c1)OCc1ccccc1` (relative stereo), with 224 to 225 °C; and `CCOC(=O)/C=C/C=C/c1ccc(OCC(F)(F)C(F)F)cc1`, with 65 to 66 °C; and `CC(C)(C)c1cc(-c2csc(CO)n2)cc(C(C)(C)C)c1O`, with 126 to 127 °C. Turning to `CS(=O)(=O)c1ccc(Cn2c3c(c4cc(F)cc(F)c42)CCCC(CC(=O)O)C3)cc1` (stereo unspecified), the melting point fell in the range of 200 to 202 °C. Then `CNC(=S)n1nc(Sc2ccc(C#N)cc2)nc1N`, with 200 to 203 °C; and `O=c1[nH]nc(-c2ccc(-n3ccnc3)cc2)c2ncccc12`, with 376 to 378 °C; and `CC(=O)NC(=O)C(Cl)Cc1ccc(OCC(C)(C)c2ccccc2)cc1` (stereo unspecified), with 125 to 126 °C. The result for `Cc1cc(Oc2cccc(C(F)(F)F)c2)nn1C(=O)Nc1ccc(F)cc1` reads 70 to 72 °C; that for `O=C(CNC(=O)C(Cc1ccccc1)P(=O)(O)O)OCc1ccccc1` (stereo unspecified), 208 to 228 °C. Consider `O=c1[nH]nc(CN2CC[C@H](OCc3cc(C(F)(F)F)cc(C(F)(F)F)c3)[C@H](c3ccccc3)C2)[nH]1` (relative stereo), for which the melting point is 89 to 91 °C. With `O=C(NCCCN1C(=O)C2(COc3cc4c(cc32)CCO4)c2ccccc21)c1ccccc1OC(F)(F)F` (stereo unspecified), the melting point was in the range of 65 to 70 °C. For the compound `COc1ccc(-c2nc(SC)sc2-c2ccc(OC)cc2)cc1`, the melting point fell in the range of 102 to 104 °C. Then `COc1cc(NC(=O)c2ccccc2Cl)ccc1C(=O)N1CCCC(OCCNS(=O)(=O)C(F)(F)F)c2cc(Cl)ccc21` (stereo unspecified), with 140 to 142 °C; and `c1ccc(C(c2ccnc3ccccc23)n2ccnc2)cc1` (stereo unspecified), with 143 °C; and `CCS(=O)(=O)C(=CNc1ccc(Cl)cc1)S(=O)(=O)CC`, with 173 to 175 °C. For the compound `Nc1c(Nc2cccc3cnccc23)c(=O)c1=O`, the melting point came out at 215 °C.

Take `C=CCOc1ccc(C(=O)CC(C#N)c2ccc(OC)cc2OC)cc1` (stereo unspecified): the melting point lay within 112 to 113 °C. The result for `CC(C)Cn1c(=O)n(C)c(=O)c2c(I)n(Cc3cccc4ccccc34)cc21` reads 140 to 142 °C; that for `FC(F)(F)Oc1ccc(C2NCCc3ccccc32)cc1` (stereo unspecified), 56.6 to 57.1 °C.

Turning to `OCc1c[nH]c(Sc2ccccc2)c1`, the melting point was in the range of 69 to 71 °C. The compound `Oc1ccc(Nc2nc(NCc3ccco3)nc(Nc3cccc(Oc4ccccc4)c3)n2)cc1` displayed a melting point of 80 to 83 °C. Then `COC(=O)c1ccc(S(C)(=O)=O)c(C(=O)NC(C)(C)CO)c1Cl`, with 70 to 72 °C; and `O=C(c1ccc(Br)cc1Cl)N1Cc2cccn2Cc2ccccc21`, with 77 to 80 °C. Then `CCOC(=O)c1c(-c2ccc(F)cc2)c2nccnc2c(=O)n1C`, with 221 to 222 °C. The compound `NC(CSSCCCN1C(=O)NCC1c1ccccc1)C(=O)O` (stereo unspecified) showed a melting point of 172 to 178 °C. Then `CCNc1cc(NS(=O)(=O)c2ccc(N)cc2)nc(NCC)n1`, with 245 to 250 °C.

Turning to `COc1cc(N)c(S(C)(=O)=O)cc1C(=O)O`, the melting point was 178 to 180 °C. Then `COC(=O)C(=Cc1ccc(OC)c(OC)c1)NC(=O)c1ccccc1`, with 135 to 137 °C; and `CN1C(=O)c2c(Oc3ccccc3OS(=O)(=O)C(F)(F)F)cc3c(c2C1=O)c1ccc(OCc2ccccc2)cc1n3C(=O)OC(C)(C)C`, with 186 °C; and `Cc1ccc(-c2ccc3c(c2)C=C(C(=O)Nc2ccc(CN(C)C4CCOCC4)cc2)CCN3C)cc1`, with 178 to 181 °C. Then `COC(=O)N(C)c1cc(C(C)(C)C)no1`, with 70.5 to 71.5 °C; and `CCc1cccc(CC)c1NC(=O)C(C)Br` (stereo unspecified), with 197 to 199 °C; and `Cc1cc(C)cc(P(c2cc(C)cc(C)c2)c2cccc3c2-c2c(cccc2P(c2cc(C)cc(C)c2)c2cc(C)cc(C)c2)OCCCO3)c1`, with 232 to 234 °C. Then `O=C(O)CCc1cn(Cc2ccc(OCc3ccc(-c4ccccc4)nc3)cc2)cc1-c1ccccc1`, with 185 to 186 °C; and `OC[C@@H](O)COc1ccc(OCc2ccccc2)cc1`, with 125 to 126 °C. Consider `CN1C(=O)CN=C(c2ccccc2F)c2c1cc(Cl)c(N)c2Cl`, for which the melting point is 234 °C. With `CCCc1nn(C)c(C(N)=O)c1NC(=O)c1cc([N+](=O)[O-])cnc1OCC`, the melting point fell in the range of 251 to 253 °C.

Turning to `CCc1c(OC)c(C)c(OC)c2c1C(=O)N(CSc1nnnn1-c1ccccc1)S2(=O)=O`, the melting point lay within 44 to 46 °C. Then `OC(Cn1cncn1)(OCCOc1ccc(Cl)cc1Cl)c1ccc(Cl)cc1Cl` (stereo unspecified), with 88 to 90 °C; and `CCc1cccc(C)c1CNc1cc(CO)cn2nc(C)nc12`, with 180 °C; and `O=C(NCc1ccccn1)Nc1cc(NC(=O)c2ccccc2)ccn1`, with 222 to 223 °C. Compound `CC(=O)OC1CCC2(C)C(=CCC3C4CCC(=O)C4(C)CC(OC(C)=O)C32)C1` (stereo unspecified) returned a melting point of 177 to 179 °C. The compound `NC(=O)COc1ccc2c(-c3ccccc3F)noc2c1Cl` displayed a melting point of 172 °C. Then `CCOc1ccc2[nH]c(=O)n(C(C)(C)COC)c2c1`, with 149 °C; and `CC(C)C(C)C(=O)NC(C)(Cc1c[nH]c2ccccc12)C(=O)NCCc1ccccc1` (stereo unspecified), with 104 to 109 °C; and `CCOc1sc(C(N)=O)c2c1-c1c(cnn1C)CC2`, with 200 to 202 °C. The result for `CCn1c2cccc(C=O)c2c2c3ccccc3ccc21` reads 90.5 to 91.5 °C. Then `CNC(=S)C1(c2ccc3ccccc3n2)CCCS1` (stereo unspecified), with 124 °C; and `BrCCCCCCCc1ccc(OCc2ccccc2)cc1`, with 32 to 34 °C; and `Cn1c(CNCC2(C)COC2)cc2cc(NC(=O)c3ccc(OCC4CC4)cc3)ccc21`, with 154 to 155 °C.

In the case of `CC(=O)Nc1cc2c(cc1Oc1ccc(F)cc1F)CCC2c1ccccc1` (stereo unspecified), the melting point was 117 °C. Then `COc1nc(-n2cc(C(=O)O)c(=O)c3cc(F)c(N4CC(N)C4)c(Cl)c32)c(F)cc1F`, with 171 to 175 °C; and `CCOC(=O)c1sc(OCC)nc1C(F)(F)F`, with 30.5 to 31.5 °C. As for `COc1cc2c(Nc3cc(O)c(Cl)cc3F)c(C#N)cnc2c(OC)c1OC`, the melting point is 223 to 225 °C. The compound `CCOCCOc1ccc(-c2nc(=O)c3ccccc3s2)cn1` registered a melting point of 93.6 to 94.9 °C.

`CCCCOCCOc1ccc(-c2ccc3c(c2)C=C(C(=O)Nc2ccc(S(=O)Cc4nccn4CC(=O)O)cc2)CCN3CC(C)C)cc1` (stereo unspecified) yielded a melting point of 146 to 148 °C. `C#CCC1C(=O)NOc2cc(F)c(NC(=S)N3CCCC=N3)cc21` (stereo unspecified): the melting point was 151 to 155 °C. The result for `COC1=C(C(=O)c2ccc(C)cc2)C(c2ccc(C(C)C)cc2)N(c2ncc(S(=O)(=O)c3ccc([N+](=O)[O-])cc3)s2)C1=O` (stereo unspecified) reads 237 °C; that for `Cc1cc(SC2=C(O)CC(CCc3ccoc3)(C(C)C)OC2=O)c(C(C)(C)C)cc1CO` (stereo unspecified), 62 to 70 °C; that for `CCS(=O)(=O)Nc1cc(Cc2c[nH]cn2)ccc1Cl`, 159 to 160 °C.

In turn, `CCCOc1cc2nc(Cl)nc(Cl)c2cc1OC` showed a melting point of 118 to 120 °C.

`CCCCc1csc2ccc3[nH]c4c(c3c12)CN(C(C)C)CC4` returned a melting point of 157 to 158 °C. Compound `CCN(CC)c1ccc(C2(CNC(=O)Nc3c(C(C)C)cccc3C(C)C)CCCC2)cc1` yielded a melting point of 138 to 140 °C.

For `CCOC(=O)C(=CNc1nccs1)C(=O)c1c(Cl)cc(Cl)nc1Cl`, the melting point is 126 to 127 °C. `Cc1ccc(CON2C(C(F)(F)F)C(C(=O)Nc3ccccc3)=CN2C)c(C)c1` (stereo unspecified) returned a melting point of 123 to 125 °C.

The compound `O=C(O)CCCNc1nc2ccccc2c(=O)o1` gave a melting point of 147 to 148 °C. Compound `CC(COc1ccccc1)OS(C)(=O)=O` (stereo unspecified) came in with a melting point of 58 °C. The compound `CCOC(=O)/C(=N\OC1CCCC1)c1csc(N)n1` displayed a melting point of 136 to 138 °C. In the case of `CCCC(=NO)c1ccc(C(=O)O)cn1`, the melting point is 203 to 205 °C. Regarding `COc1c(C)cnc(C(Br)C#N)c1C` (stereo unspecified), the melting point was 56 to 57 °C.

The compound `COc1ccc2c(c1)c(-c1cc3c(OC)ncnc3[nH]1)cn2C` yielded a melting point of 184 °C. Then `CC(C)OCCCNc1c([N+](=O)[O-])cnc2cccnc12`, with 62.5 to 63.5 °C.

Take `Nc1nc(-c2cc(Cl)ccc2Cl)nc(N2CCN(c3ncccn3)CC2)n1`: the melting point lay in the range of 224 to 225 °C. The result for `CC(C(O)CCc1ccc(OC(F)(F)F)cc1)n1cncn1` (stereo unspecified) reads 69 °C. As for `Cc1nc(-n2ccc(OCCC3CC3)cc2=O)sc1C(=O)NCc1ccc(F)cc1`, the melting point lay within 172 to 174 °C. `CCCc1nc2c(N)nc(C)c(C)c2n1CC(C)(C)NC(=O)c1ccccc1` came in with a melting point of 208 to 210 °C.

Regarding `C=C[C@H](Cc1ccccc1)NC(=O)OCc1ccccc1`, the melting point is 87 to 88 °C.

In turn, `CNc1nc(Cl)c(Cl)c(N2CCN(CC[C@H]3CC[C@H](NC(=O)OC(C)(C)C)CC3)CC2)n1` yielded a melting point of 199 to 202 °C.

On to `CC(C)(C)COc1c(-c2ccc(S(C)(=O)=O)cc2)cnn(-c2ccc(F)c(F)c2)c1=O`, for which the melting point fell in the range of 126 to 128 °C. The compound `Cc1c(-c2ncc([N+](=O)[O-])n2C)cnn1-c1ccccc1` had a melting point of 194 °C.
